According to paper PMC4366154, “Easy to Use Plastic Optical Fiber-Based Biosensor for Detection of Butanal” (PLoS ONE, 2015):

Biological target: T1, porcine odorant-binding protein (pOBP) (Sus scrofa, UniProt P81245)
T1 construct: recombinant in E. coli BL21-DE3 from pGEX2TK as GST fusion, GST cut off on column with thrombin
T1 sequence (P81245 1-157): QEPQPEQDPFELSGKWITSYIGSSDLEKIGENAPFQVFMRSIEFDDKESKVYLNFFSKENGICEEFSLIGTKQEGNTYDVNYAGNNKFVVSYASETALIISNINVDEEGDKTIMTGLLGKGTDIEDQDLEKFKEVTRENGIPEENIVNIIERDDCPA
Test: direct fluorescence titration, emission at […] nm
Details: 20 mM Tris-HCl pH 7.8, 1.0 μM pOBP, overnight at 4 °C

## Nc1cccc2cc3ccccc3cc12 [1-amino-anthracene]
  direct fluorescence titration, emission at 480 nm: direct titrations using the fluorescent ligand 1-amino-anthracene (AMA)
